Test results from patent US6890917B2, “Geldanamycin derivative and method of treating cancer using same” (The United States of America as represented by the …, priority 2001, dated 2005).

Tested on: standard panel of 12 human tumor cell lines (NCI-H23, NCI-H522, MDA-MB-231, MDA-MB-435, SW-620, COLO 205, LOX IMVI, UACC-62, OVCAR-3, OVCAR-5, U251, SF295)
Assay: Hollow fiber assay (HFA) with stable endpoint MTT assay, compound given to mice carrying intraperitoneal and subcutaneous fiber implants
Format: in vivo
Design: Total HFA Score: scale not given here
Conditions: for Total HFA Score / IP Score / SC Score: HFA in mice; for Total HFA Score: IP + SC scores; for IP Score: intraperitoneal fiber implants; for IP Score / SC Score: 2 points per 50% or greater reduction in viable cell mass; for SC Score: subcutaneous fiber implants; for in vivo anti-cancer activity compared with Compound C (in words): intraperitoneal injection, Table 1
Description: Compounds A-C were tested in a hollow fiber assay for in vivo activity. Each compound was tested against a standard panel of 12 human tumor cell lines including NCI-H23, NCI-H522, MDA-MB-231, MDA-MB-435, SW-620, COLO 205, LOX IMVI, UACC-62, OVCAR-3, OVCAR-5, U251 and SF295. The cell lines were cultivated in RPMI-1640 containing 10% FBS and 2 mM glutamine. On the day preceding hollow fiber preparation, the cells were given a supplementation of fresh medium to maintain log phase growth. For fiber preparation, the cells were harvested by standard trypsinization technique and resuspended at the desired cell density. The cell suspensions were flushed into 1 mm polyvinylidene fluoride (PVDF) hollow fibers (MW exclusion of 500,000 Da) and subsequently heat-sealed at 2 cm intervals. The samples generated from these seals were placed into tissue culture medium and incubated at 37° C. in 5% CO2 for 24-48 hours prior to implantation. A total of 3 different tumor cell lines were prepared for each experiment so that each mouse received 3 intraperitoneal implants (1 of each tumor cell line) and 3 subcutaneous implants (1 of each tumor cell line). A total of 4 experiments were conducted on each mouse (3 cell lines/experiment×4 experiments=12 cell lines).
On the day of implantation, samples of each tumor cell line were quantitated for viable cell mass by a stable endpoint MTT assay so that the time 0 cell mass was known. In the MTT assay, the fibers were incubated in 6-well plates (1-6 fibers/well) with 3 mL of pre-warmed (37° C.) complete medium containing MTT (1 mg/mL) (Sigma) for 4 hours at 37° C. in 5% CO2. The MTT solution was aspirated and the fibers were washed with 2 mL of saline containing 2.5% protamine sulfate overnight at 4° C. A second wash was performed with 2 mL of saline containing 2.5% protamine sulfate, and the fibers were maintained at 4° C. for a minimum of 2 hours. The fibers were then removed from the protamine sulfate, individually wiped, placed in a 24-well plate (1 fiber/well), cut in half and dried overnight in a biosafety hood. To extract the formazan, DMSO was added (0.25 mL) to each well and the plates were rotated for 4 hours at room temperature. The extracted samples were transferred to 96-well plates and the OD was determined at 540 nm. From these spectrophotomeric measurements, the cytostatic and cytocidal capacities of the test compound were assessed.
Following implantation of the hollow fibers, mice were treated with one of the compounds, as listed in Tables 1 and 2 starting on day 3 or 4 following fiber implantation and continuing once daily for a total of 4 doses. Each compound was either assessed by intraperitoneal injection (Example 1) or by oral administration (Example 2) at 2 dose levels with 3 mice/dose/experiment. Vehicle controls consisted of 6 mice receiving the compound diluent only. The fibers were collected from the mice on the day following the fourth compound treatment and subjected to the stable endpoint MTT assay. The optical density of each sample was determined spectrophotometrically at 540 nm and the mean of each treatment group was calculated. The percent net cell growth in each treatment group was determined and compared to the percent net cell growth in the vehicle treated controls.
In the context of the following examples, compounds were selected for further testing (e.g., time/dose exposure studies, preliminary pharmacology studies, subcutaneous xenograft efficacy studies) on the basis of several hollow fiber assay criteria, including (1) a reduction in net cell growth of 50% or greater in 10 of the 48 possible test combinations; (2) a reduction in net cell growth of 50% or greater in a minimum of 4 of the 24 distant site combinations (SC score); and/or (3) cell kill of 1 or more cell lines in either implant site (reduction in the viable cell mass below the level present at the start of the experiment). […]

[1] = compound by intraperitoneal injection once daily for 4 days, 2 dose levels (A, B: 75 and 50 mg/kg/dose; C: 20 and 13.4 mg/kg/dose)
[2] = compound orally (PO) once daily for 4 days, 75 and 50 mg/kg/dose

## CO[C@H]1/C=C\C=C(/C)C(=O)NC2=CC(=O)C(NCCN(C)C)=C(C[C@@H](C)C[C@H](OC)[C@H](O)[C@@H](C)/C=C(\C)[C@@H]1OC(N)=O)C2=O.Cl [Compound B, 17-Demethoxy-17-[[2-(dimethylamino)ethyl]amino]geldanamycin hydrochloride]
[1]
  Total HFA Score: 42
  IP Score: 24
  SC Score: 18
[2]
  Total HFA Score: 20
  IP Score: 10
  SC Score: 10
HFA
  in vivo anti-cancer activity compared with Compound C (in words): significantly greater in vivo anti-cancer activity
HFA, oral administration, Table 2
  in vivo anti-cancer activity by oral administration (in words): significant in vivo anti-cancer activity

## CO[C@H]1/C=C\C=C(/C)C(=O)NC2=CC(=O)C(NCCCN(C)C)=C(C[C@@H](C)C[C@H](OC)[C@H](O)[C@@H](C)/C=C(\C)[C@@H]1OC(N)=O)C2=O [Compound C, 17-Dimethylaminopropylamino-17-demethoxygeldanamycin, reference compound]
[1]
  Total HFA Score: 16
  IP Score: 14
  SC Score: 2

## CO[C@H]1/C=C\C=C(/C)C(=O)NC2=CC(=O)C(NCCN(C)C)=C(C[C@@H](C)C[C@H](OC)[C@H](O)[C@@H](C)/C=C(\C)[C@@H]1OC(N)=O)C2=O [Compound A, 17-Dimethylaminoethylamino-17-demethoxygeldanamycin]
[1]
  Total HFA Score: 30
  IP Score: 20
  SC Score: 10
HFA
  in vivo anti-cancer activity compared with Compound C (in words): significantly greater in vivo anti-cancer activity
